# In patent US9944583B2, “Methods for ameliorating and preventing central nervous system inflammation” (THE REGENTS OF THE UNIVERSITY OF CALIFORNIA, priority 2007, dated 2018):
# Entries after “also recorded” stand apart in the source; their conditions may differ.
# Columns and labels:
# [1] = system: primary neuronal cultures; assay: DHE oxidation (superoxide and/or hydrogen peroxide production) in primary neuronal cultures exposed to ketamine; type: cell-based, mouse
# [2] = system: synaptosomal mitochondria; assay: respiration of synaptosomal mitochondria (oximetry); conditions: apocynin 0-200 μM in synaptosomes
# NADPH oxidase = biological target: T1, NADPH oxidase (Mus musculus, UniProt Q61093); assay: EPR superoxide production by forebrain synaptosomes exposed to IL-6; type: biochemical; conditions: apocynin 0.4 mM applied 5 min before IL-6
# T1 sequence (Q61093 1-570): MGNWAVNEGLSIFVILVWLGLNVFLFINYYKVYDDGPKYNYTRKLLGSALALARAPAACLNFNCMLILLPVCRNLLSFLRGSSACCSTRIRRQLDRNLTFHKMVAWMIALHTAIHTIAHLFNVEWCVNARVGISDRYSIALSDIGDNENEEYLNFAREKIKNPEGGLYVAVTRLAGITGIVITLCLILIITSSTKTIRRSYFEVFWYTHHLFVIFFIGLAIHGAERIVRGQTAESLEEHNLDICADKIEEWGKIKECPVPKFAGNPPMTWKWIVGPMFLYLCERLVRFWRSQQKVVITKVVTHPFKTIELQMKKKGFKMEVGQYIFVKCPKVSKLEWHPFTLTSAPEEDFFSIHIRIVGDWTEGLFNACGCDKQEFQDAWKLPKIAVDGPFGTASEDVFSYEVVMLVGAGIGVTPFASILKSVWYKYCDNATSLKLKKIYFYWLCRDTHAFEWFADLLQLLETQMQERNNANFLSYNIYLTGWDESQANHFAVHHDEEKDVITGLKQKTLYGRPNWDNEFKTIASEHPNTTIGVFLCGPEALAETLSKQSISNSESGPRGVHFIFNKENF
# T1 sequence (Q61462 1-192 partner): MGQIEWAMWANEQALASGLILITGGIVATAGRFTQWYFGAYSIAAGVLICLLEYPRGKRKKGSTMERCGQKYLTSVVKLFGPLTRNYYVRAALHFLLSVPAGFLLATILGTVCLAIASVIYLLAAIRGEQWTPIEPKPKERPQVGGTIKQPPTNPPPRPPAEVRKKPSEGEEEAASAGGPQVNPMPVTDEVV
# [3] = system: PV-interneurons in mouse prefrontal cortex; assay: two-day ketamine treatment of mice: oxidized DHE, parvalbumin and GAD67 in prefrontal cortex; type: in vivo
# Description: Animals and treatments. […] Male C57BL6 mice were obtained from Jackson Labs, Bar Harbor, Me., at 8-12 weeks and housed in our facility until 15 weeks when they were used for experiments. Ketamine (30 mg/kg) was applied intraperitoneally (IP) on two consecutive days at around 4 pm. DHE was applied 30 min after the last ketamine injection as described (19, 20). Briefly, two serial i.p. injections of freshly prepared dihydroethidium (27 mg/kg) are given at 30 minute intervals. Eighteen hours later, mice are anesthetized with inhaled halothane, and perfused intracardially with cold saline followed by 4% paraformaldehyde in PBS. The Nox inhibitor, apocynin (5 mg/kg/day) was given in the drinking water for a total of seven days, with an assumed intake of […] H2O/mouse/day, and ketamine was applied on the last two days. […] All animal studies were approved by the Animal Care Program at the University of California, San Diego, and are in accordance the PHS Guide for the Care and Use of Laboratory Animals, USDA Regulations, and the AVMA Panel on Euthanasia.
# Immunohistochemistry: Brains were frontally sliced in a vibratome into 50 μm coronal sections encompassing the prefrontal cortex region (from Bregma 2.0 to 1.3). Sequential slices were processed for floating-section double immunohistochemistry for the detection of parvalbumin and GAD67. Antigen retrieval was performed by incubation of the slices in 1% sodium borohydride for 15 min as described (see reference 34, below), followed by washing in PBS and incubation in 10% normal goat serum in PBS for 16 h at 4° C. Primary antibodies (Calbindin: 1:5000: Calretinin: 1:2000; Parvalbumin: 1:3000, all rabbit polyclonals from Swant, Bellinzona, Switzerland. GAD67: 1:1000, from Chemicon-Millipore, Temecula, Calif.) were diluted in 2% normal goat serum in PBS and applied to the slices for 18 h at 4° C., after which slices were washed in PBS and incubated in a 1:1000 dilution of ALEXAFLUOR™ (Molecular Probes, Invitrogen, Carlsbad, Calif.) conjugated goat anti-rabbit (568) or goat anti-mouse (488) antibodies for 1 hr at room temperature (rt). Slices were washed in PBS and mounted sequentially in glass slides using […]™ (Vector Laboratories, Burlingame, Calif.), covered with a coverslip and allowed to dry for at least 24 h before confocal imaging.
# Six slices were analyzed per animal.
# Analysis of superoxide and/or hydrogen peroxide production by confocal imaging of in vivo dihydroethidium (DHE) oxidation. Mice will be injected intraperitoneally (i.p.) with dihydroethidium.
# PV-interneurons = assay: parvalbumin and GAD67 immunoreactivity in PV-interneurons in primary neuronal cultures; conditions: co-exposure with ketamine 24 h; muscimol 10 μM, C3, apocynin 0.5 mM
# [4] = system: primary neuronal cultures; assay: IL-6 exposure of primary neuronal cultures: oxidized DHE, Nox2, parvalbumin and GAD67; type: cell-based, mouse
# Description: IL-6 increases superoxide in a Nox dependent manner, and reduces GAD67 and parvalbumin in primary cultures, as summarized by the data graphically presented in FIG. 18. […] As before, dihydroethidium (DHE) was applied for the last hour (DHE detects superoxide and hydrogen peroxide). After fixation, ICC for PV and GAD67 was carried out as described in methods and quantitative confocal microscopy was utilized for fluorescence analysis.
# DHE (1 μg/ml) was added during the last hour of treatment. Images show the increase in Nox2 immunoreactivity and oxidized DHE upon treatment with IL-6. Bar-graphs show the results of quantification of oxidized DHE and Nox2 fluorescence expressed as % of control. […] Data are means±SEM. Baseline intensities: DHE=21±4.7; Nox2=18.7±2.6.
# Fluorescence confocal images of representative fields depicting the expression of parvalbumin (PV) and GAD67 in PV-interneurons. Bar-graph represents the quantification of fluorescence expressed as % of control. […] Data are means±SEM. Baseline intensities: PV=135±32; GAD67=114±26.
# IL-6 potentiates ketamine effects on PV-interneurons. […] After fixation, ICC for GAD67 and parvalbumin was carried out as described by Kinney (2006) J. Neurosci. […] N=3 cultures per condition.
# [5] = apocynin 5 mg/kg/day 1 week in drinking water, C3 1.0 mg/kg/day one month by mini-pumps
structure (smiles),measurement,setting,value
"COc1cc(C(C)=O)ccc1O [apocynin, 4-hydroxy-3-methoxyacetophenone]",effect on ketamine-mediated increase in oxidized DHE,"[1]; co-exposure with ketamine 0.5 μM 24 h, muscimol 10 μM, C3 20 μM, apocynin 0.5 mM",significantly reduced
same,effect on ketamine-mediated increase in ROS / free radical production (DHE fluorescence),[1]; ketamine with 1 μM C3 or 500 μM apocynin for 24 h,prevented
same,mitochondrial respiration,[2],did not affect
same,effect on IL-6-induced increase in superoxide (EPR),NADPH oxidase,completely blocked
same,effect on ketamine-induced increase in oxidized DHE in vivo,[3]; [5],prevented
same,effect on ketamine-mediated loss of parvalbumin immunoreactivity in PV-interneurons in vivo,[3]; [5],completely prevented
same,effect on ketamine-mediated decrease in parvalbumin and GAD67 immunoreactivity in PFC,[3]; apocynin in the drinking water,prevented
same,effect on ketamine-mediated loss of parvalbumin and GAD67 immunoreactivity in PV-interneurons,PV-interneurons,prevented; also recorded: attenuated
same,"effect on IL-6 effects (DHE oxidation, GAD67 and parvalbumin)","[4]; apocynin 0.5 mM with IL-6 10 ng/ml, 24 h",prevented
same,effect on IL-6-induced superoxide production,[4]; apocynin added along with IL-6,eliminated
same,effect on Nox2 induction by IL-6,[4]; apocynin added along with IL-6,not affected
